Literature values, collected in patent publication US6733789B1 (Biovail Laboratories, Inc., priority 1999, dated 2004).

In the case of `CC(C)NCC(O)COc1ccc(COCCOC(C)C)cc1` (stereo not drawn) [bisoprolol], the peak plasma concentration (after a 10 mg dose, oral) is given as 40 ng/mL, the “effect of food on peak plasma concentrations” value (concomitant food intake or fasting) is given as “appear not to be affected by concomitant food intake or fasting” and the “dependence of pharmacokinetic properties on age or dose” value (dose range 2.5-100 mg) is given as “not dependent on age or dose”. For the same compound, the “excreted unchanged in the urine” value (in vivo) was “About 50%”, the “mean plasma half life” value (in vivo) was 10 to 12 h and the pre-systemic metabolism (oral administration) was “below 10%”. For the same compound, the “time to peak plasma concentrations” value (oral administration) was “three”, the adverse effects (spontaneously mentioned by patients treated with bisoprolol) was “Dizziness, headache and tiredness are the most frequent adverse effects” and the “biotransformed in the liver” value (subsequent elimination of inactive metabolites via the kidneys) was 50%.
